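Where inhibition never reached the appropriate level, the endpoint shown equals the highest concentration tested. Otherwise, values were interpolated linearly from a five-concentration, 48-hour dose response in 96-well plates. Abbreviation: GI50, concentration required for 50% inhibition of growth. TGI: total growth inhibition.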
System: MDA-MB-468 breast
Assay: NCI tumour cell line growth inhibition, 48 h

SMILES	GI50 [µM]	TGI [µM]
COc1cc2c(c(OC)c1OC)-c1ccc(N=NC(N)=S)c(=O)cc1[C@@H](NC(C)=O)CC2	0.301	
Cc1ccc(C2NC(=O)c3ccccc3N2)c(C)c1 (stereo not drawn)	6.4	> 100
COc1cnc2c(c1)C(=O)c1c-2n(CCCN2CCC(O)CC2)c(=O)c2cc(Cl)ccc12	0.521	10.8
Cc1[nH]c2cc(F)ccc2c1-c1nc2c3cccnc3c3ncccc3c2[nH]1	0.0273	0.0828
CC1=C2C(=C[C@@](C)(COC(=O)c3ccc(S(=O)(=O)F)cc3)[C@@H]2O)C(=O)[C@](C)(O)C12CC2	0.53	2.17
CCCCCCCCCCCCCC[n+]1ccc(C)cc1	0.207	0.808
Cc1cccc2c3c(sc12)C(c1ccc(F)cc1)C(C#N)=C(N)O3 (stereo not drawn)	0.0315	0.551
O=C1c2cccnc2C(=O)c2c1c(C(=O)OCCCN1CCCCC1)c1ccccn21	0.314	14.5
NC(=O)c1sc(-n2cnc3cc(C(F)(F)F)ccc32)cc1OCc1ccccc1Br	> 11.5	> 23.4
CCCCNc1ccc(Nc2ccccc2)cc1	1.81	9.42
Cc1cc(O)c(C2=NN(c3ccc(S(N)(=O)=O)cc3)C(/C=C/c3ccccc3)C2)cc1Cl (stereo not drawn)	3.94	13.8
COc1ccc(C(=O)c2sc3nc(-c4cccs4)ccc3c2N)cc1OC	1.87	> 100
NC(CSSCC(N)C(=O)O)C(=O)O (stereo not drawn)	> 100	> 100
COc1cc(C)c2sc3ccccc3c(=O)c2c1NCCN(C)C	2.15	5.06
CC(=O)O[C@H]1C[C@@H]2OC3C=C(C)CCC3(C)[C@@]1(C)[C@@]21CO1 (stereo partly drawn)	0.284	1.57
O=C(N/N=C/c1cccs1)c1[nH]c2ccc(Br)cc2c1-c1ccccc1	0.0881	4.26
O=C1/C(=C/c2ccc(O)cc2)COc2ccc(O)c(O)c21	1.99	5.69
COc1ccc(-c2c3c(nc4n[nH]c(-c5ccc(Cl)cc5)c24)-c2ccccc2C(=O)C3=O)cc1	1.65	3.47
Cn1cc(C2=C(Nc3ccccc3)C(=O)NC2=O)c2ccccc21	> 23	> 25
O=[N+]([O-])c1cc([N+](=O)[O-])c(Cl)cc1Cl	1.66	3.38
Cc1nc2cc(Nc3nc(Nc4ccc(F)cc4)nc(N4CCOCC4)n3)ccc2n1Cc1ccccc1	1.52	4.28
CCCCCCNCc1cc(C(C)(C)C)cc(CNCCCCCC)c1O	1.59	3.01
